# Tested on: Influenza A virus
# Assay: Antiviral activity against oseltamivir-resistant Influenza A virus A/H1N1/pdm09 infected in MDCK cells assessed as inhibition of plaque formation measured after 2 days
# Details: 48 h
row,SMILES,EC50
1,CCC(CC)O[C@@H]1C=C(C(=O)O)C[C@H](NCc2ccc(OCc3ccc(B(O)O)cc3)cc2C)[C@H]1NC(C)=O,40 nM
2,CCC(CC)O[C@@H]1C=C(C(=O)O)C[C@H](NCc2ccc(OCc3ccc(B(O)O)cc3)cc2F)[C@H]1NC(C)=O,580 nM
3,CCC(CC)O[C@@H]1C=C(C(=O)O)C[C@H](NCc2ccc(OCc3cccc(B(O)O)c3)cc2Cl)[C@H]1NC(C)=O,30 nM
4,CCC(CC)O[C@@H]1C=C(C(=O)O)C[C@H](NCc2ccc(OCc3ccc(B(O)O)cc3)cc2Cl)[C@H]1NC(C)=O,400 nM
5,CCC(CC)O[C@@H]1C=C(C(=O)O)C[C@H](NCc2ccc(OCc3cccc(B(O)O)c3)cc2F)[C@H]1NC(C)=O,170 nM
6,CCC(CC)O[C@@H]1C=C(C(=O)O)C[C@H](N)[C@H]1NC(C)=O [OSELTAMIVIR CARBOXYLATE],> 20000 nM
7,CCC(CC)O[C@@H]1C=C(C(=O)O)C[C@H](NCc2c(C)cc(OCc3cccc(B(O)O)c3)cc2C)[C@H]1NC(C)=O,150 nM
8,CCC(CC)O[C@@H]1C=C(C(=O)O)C[C@H](NCc2ccc(OCc3cccc(B(O)O)c3)cc2C)[C@H]1NC(C)=O,30 nM
